Source: patent publication US6583177B2, “Leukotriene B4 antagonist compounds and method for treatment” (Ono Pharmaceutical Co., Ltd., priority 1994, dated 2003)
Where two headings read alike, the source gives them in different places.

Experiments:
LTB4 receptor = molecular target: T1, LTB4 receptor (Homo sapiens, UniProt Q15722); assay: Binding inhibition against 3H-LTB4 on the human polymorphonuclear leukocyte (PMN); settings: percentage of inhibition of specific 3H-LTB4 (4nM) binding to human PMN, 0° C. for 20 min
T1 construct: The reaction was started by addition of a thoroughly mixed PMN cell suspension (1.6×10^6 cells); endogenous in cells; host or cells: human polymorphonuclear leukocytes (PMN), whole-cell suspension
Procedure: Binding Inhibition Against ^3H-LTB4 on the Human Polymorphonuclear Leukocyte (PMN)
0.049 ml Hanks balanced salt solution (HBSS), 0.001 ml test compound and 0.05 ml ^3H-LTB4 (4nM) were added to polypropylene tubes and mixed. The reaction was started by addition of a thoroughly mixed PMN cell suspension (1.6×10^6 cells), followed by incubation at 0° C. for 20 min. The reaction was terminated by the addition of ice-cold HBSS (2.5 ml). PMNs were harvested by vacuum filtration through Whatman GF/C glass fiber filters on a Brandel cell harvester (BRANDEL, M-24R). The filters were then washed 2 times to remove free ^3H-LTB4 with 2.5 ml of the ice-cold PBS (−) solution. The filters were transferred to each vial, and equilibrated after adding 8 ml ACS II cocktail (Amersham). The radioactivity was measured by liquid scintillation counter (Aloka, LSC-5100).
Specific binding of ^3H-LTB4 to the LTB4 receptor was defined as total binding minus nonspecific binding. Nonspecific binding was the amount of ^3H-LTB4 binding in the presence of 1.5 μM LTB4 instead of the test compound. The inhibitory effect of test compound was calculated from the following equation.
The percentage of inhibition (%)=100−(B1/B0×100)
B1: Specific ^3H-LTB4 binding in presence of test compound
B0: Specific ^3H-LTB4 binding in absence of test compound
The compounds of the formula (IB), of the present invention have an antagonistic activity on LTB4. The results which are measured by method as hereinbefore described in Example 1(A), are shown the following Table 18.

[1] = molecular target: T2, PLA2 (derived from hog pancreas) (Sus scrofa, UniProt P00592); assay: Inhibitory activity on PLA2; assay type: biochemical; settings: hog pancreas PLA2, 10PY-PC substrate, fluorescence, pH7.5
T2 construct: a solution of 10 mU/ml PLA2 (derived from hog pancreas) (50 μl); from tissue; host or cells: hog pancreas
Procedure: (1) Inhibitory Activity on PLA2
A reaction solution including 50 mM tris-HCl buffer (pH7.5, 874 μl; containing 100 mM sodium chloride, 1 mM EDTA), 1M calciumchloride (6 μl), 1% bovine serum albumin (10 μl) and 2.5 mM 10PY-PC (10 μl), was prepared. To the solution were added a test compound in various concentration or water (50 μl), and a solution of 10 mU/ml PLA2 (derived from hog pancreas) (50 μl). The appearance of fluorescence was measured (Ex=345 nm, Em=396 nm). Percentage (%) of the strength of fluorescence in the presence of a test compound was calculated when the strength of that in the absence thereof was regarded as 100%, and therefrom IC50 value was calculated.
10PY-PC represents 3′-palmitoyl-2-(1-pyrenedecanoyl)-L-α-phosphatidylcholine, […]

[2] = molecular target: T3, trypsin (derived from bovine pancreas) (Bos taurus, UniProt P00760); assay: Inhibitory activity on trypsin; assay type: biochemical
T3 construct: a solution of 80 mU/ml trypsin (derived from bovine pancreas) (50 μl); from tissue; host or cells: bovine pancreas
T3 sequence (P00760 24-246): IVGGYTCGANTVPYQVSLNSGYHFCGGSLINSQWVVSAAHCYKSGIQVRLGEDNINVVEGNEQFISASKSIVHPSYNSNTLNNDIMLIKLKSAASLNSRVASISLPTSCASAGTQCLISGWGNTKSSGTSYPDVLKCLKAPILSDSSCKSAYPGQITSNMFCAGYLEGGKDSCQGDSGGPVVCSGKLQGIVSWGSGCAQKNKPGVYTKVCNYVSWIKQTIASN
Procedure: (2) Inhibitory Activity on Trypsin
To a mixture of a 0.2 M HEPES.sodium hydroxide buffer solution (pH 8.0, 100 μl) and distilled water (640 μl), were added a test compound in various concentration or water (10 μl), and a solution of 80 mU/ml trypsin (derived from bovine pancreas) (50 μl) and then the mixture was preincubated for one minute at 30° C. To the solution thus obtained was added 2.5 mM BAPNA (200 μl) and the mixture was incubated at 30° C. The absorbance at 405 nm was measured. Percentage (%) of the absorbance in the presence of a test compound was calculated when the absorbance in the absence thereof was regarded as 100%, and therefrom IC50 value was calculated.
HEPES represents 4-2-hydroxyethyl)-1-piperazineethanesulfonic acid, and
BAPNA represents α-N-benzoyl-DL-arginine-p-nitroanilide hydrochloride.

[3] = formula (IB) compounds, Table 18
[4] = bovine pancreas trypsin, BAPNA substrate, 30° C., pH 8.0, read-out: inhibitory activity on trypsin IC50
[5] = formula (IA) compounds, Table 17

T1 sequence (Q15722 whole entry): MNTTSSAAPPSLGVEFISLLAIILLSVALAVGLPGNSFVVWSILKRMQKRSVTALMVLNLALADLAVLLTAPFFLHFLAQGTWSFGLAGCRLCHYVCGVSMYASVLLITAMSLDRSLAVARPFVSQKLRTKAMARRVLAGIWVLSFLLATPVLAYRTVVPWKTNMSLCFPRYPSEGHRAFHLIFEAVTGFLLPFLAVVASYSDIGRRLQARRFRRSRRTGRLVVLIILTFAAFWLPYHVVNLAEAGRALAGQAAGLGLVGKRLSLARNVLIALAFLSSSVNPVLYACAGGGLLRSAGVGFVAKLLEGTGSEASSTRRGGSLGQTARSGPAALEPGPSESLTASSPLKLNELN
T2 sequence (P00592 23-146): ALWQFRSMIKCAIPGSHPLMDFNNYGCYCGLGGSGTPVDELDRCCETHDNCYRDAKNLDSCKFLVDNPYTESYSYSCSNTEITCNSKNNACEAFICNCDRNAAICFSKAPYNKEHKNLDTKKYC

inhibition (LTB4 receptor; [3]) [%]	IC50 [1] [µM]	IC50 [2, 4] [µM]	inhibition (LTB4 receptor; [5]) [%]	Compound	IC50 [2] [µM]
67.6				C=CCN(CC(=O)OCCN(C)C)C(=O)/C(C)=C/c1ccc(C(=O)Oc2ccc(C(=N)N)cc2)cc1 [Example 2(u)]	
91.8	70	0.1		CCOC(=O)CC[C@H](NC(=O)c1ccc(/C=C/C(=O)Oc2ccc(C(=N)N)cc2)cc1)C(=O)OCC [Example 2(f)]	
81	94	0.12		C=CCN(CC(=O)OCC)C(=O)c1ccc(/C=C(\C)C(=O)Oc2ccc(C(=N)N)cc2)cc1 [Example 2(l)]	
65.3				C=CCN(CC(=O)O)C(=O)/C(C)=C/c1ccc(C(=O)Nc2ccc(C(=N)N)cc2)cc1 [Example 2(ee)]	
55.4		0.12		CCOC(=O)CC[C@H](NC(=O)COc1ccc(C(=O)Oc2ccc(C(=N)N)cc2)cc1)C(=O)OCC [Example 2(j)]	
85.5				CCOC(=O)CN(C(=O)/C(C)=C/c1ccc(C(=O)Oc2ccc(C(=N)N)cc2)cc1)[C@@H](CC(C)C)C(=O)OCC [Example 2(y)]	
103	8.1	0.26		CCOC(=O)CN(C(=O)c1ccc(C(=O)Oc2ccc3c(c2)CCC(C(=N)N)=C3)cc1)c1ccccc1 [Example 2(c)]	
89.7		0.13		N=C(N)c1ccc(OC(=O)c2ccc(CN3CCC(c4ccccc4)CC3)cc2)cc1 [Compound 5]	
			87	CCOC(=O)CCN(CC(=O)OCC)C(=O)/C(C)=C/c1ccc(C(=O)Oc2ccc(C(=N)N)cc2)cc1 [Compound 18]	
80.1	46	0.16		CCOC(=O)CC[C@H](NC(=O)C(=Cc1ccc(C(=O)Oc2ccc(C(=N)N)cc2)cc1)C(=O)OCC)C(=O)OCC [Example 2(r)]	
89.6	53	0.16		CCOC(=O)CC[C@H](NC(=O)c1ccc(/C=C(\C)C(=O)Oc2ccc(C(=N)N)cc2)cc1)C(=O)OCC [Example 2(g)]	
89.2	18	0.17		CCOC(=O)CC[C@H](NC(=O)/C=C/C=C/c1ccc(C(=O)Oc2ccc(C(=N)N)cc2)cc1)C(=O)OCC [Example 2(m)]	
97.7	20	0.1		CCOC(=O)CC(NC(=O)/C(C)=C/c1ccc(C(=O)Oc2ccc(C(=N)N)cc2)cc1)(C(=O)OCC)C(=O)OCC [Example 2(k)]	
85.4	11	0.15		CCOC(=O)/C=C/CC(NC(=O)/C(C)=C/c1ccc(C(=O)Oc2ccc(C(=N)N)cc2)cc1)(C(=O)OCC)C(=O)OCC [Example 2(h)]	
92				C=CCN(CC(=O)Oc1ccc(C(=N)N)cc1)C(=O)/C(C)=C/c1ccc(C(=O)Oc2ccc(C(=N)N)cc2)cc1 [Example 2(v)]	
82.8	10	0.16		C=CCN(CC(=O)OCC)C(=O)/C=C/C=C/c1ccc(C(=O)Oc2ccc(C(=N)N)cc2)cc1 [Example 2(n)]	
			63.7	CCOC(=O)CC[C@H](NC(=O)/C=C(\C)c1ccc(C(=O)Oc2ccc(C(=N)N)cc2)cc1)C(=O)OCC [Compound 4]	
92.8				CCOC(=O)CCN(CCC(C)C)C(=O)/C(C)=C/c1ccc(C(=O)Oc2ccc(C(=N)N)cc2)cc1 [Example 2(z)]	
76.7				C/C(=C\c1ccc(C(=O)Oc2ccc(C(=N)N)cc2)cc1)C(=O)N(CC(=O)O)CC1CCCO1 (stereo not shown) [Example 2(cc)]	
90.2				CCOC(=O)c1cc2ccccc2n1Cc1ccc(C(=O)Oc2ccc(C(=N)N)cc2)cc1 [Example 5(b)]	

inhibition (LTB4 receptor; [3]) [%]	IC50 [1] [µM]	IC50 [2, 4] [µM]	inhibition (LTB4 receptor; [5]) [%]	Compound	IC50 [2] [µM]
			61.2	COCCCN(C(=O)/C(C)=C/c1ccc(C(=O)Oc2ccc(C(=N)N)cc2)cc1)C(C(=O)O)C(=O)O [Compound 24]	
			83.5	C=CCN(CCCC(=O)O)C(=O)/C(C)=C/c1ccc(C(=O)Oc2ccc(C(=N)N)cc2)cc1 [Compound 20]	
83	44	0.16		C=CCN(CC(=O)OCC)C(=O)C(=Cc1ccc(C(=O)Oc2ccc(C(=N)N)cc2)cc1)C(=O)OCC [Example 2(s)]	
			91.5	C=CCN(CC(=O)OCC)C(=O)/C(C)=C/c1ccc(C(=O)Oc2ccc(C(=N)N)cc2)cc1 [Compound 1]	
87.3				CCOC(=O)CN(CCOC)C(=O)/C(C)=C/c1ccc(C(=O)Oc2ccc(C(=N)N)cc2)cc1 [Example 2(bb)]	
94.5	8.5	0.34		CCOC(=O)[C@H](COC(=O)c1ccccc1)NC(=O)/C(C)=C/c1ccc(C(=O)Oc2ccc(C(=N)N)cc2)cc1 [Example 2(e)]	
82.4				COc1cc(C(=N)N)ccc1OC(=O)c1ccc(C(=O)N(CCCc2ccccc2)C(Cc2ccccc2)Cc2ccccc2)cc1 [Example 2(ff)]	
94.1				C=CCN(CC=C)C(=O)CN(CC=C)C(=O)/C(C)=C/c1ccc(C(=O)Oc2ccc(C(=N)N)cc2)cc1 [Example 2(x)]	
92	2.6	0.4		N=C(N)C1=Cc2ccc(OC(=O)c3ccc(C(=O)N(Cc4ccccc4)c4ccccc4)cc3)cc2CC1 [Example 2(a)]	
76.7				C=CCN(CC(=O)NC(C(=O)OCC)C(=O)OCC)C(=O)/C(C)=C/c1ccc(C(=O)Oc2ccc(C(=N)N)cc2)cc1 [Example 2(w)]	
98	34	0.16		C=CCN(CC(=O)OCC)C(=O)c1ccc(/C(C)=C/C(=O)Oc2ccc(C(=N)N)cc2)cc1 [Example 2(q)]	
			96.5	C=CCN(CCCC(=O)OCC)C(=O)/C(C)=C/c1ccc(C(=O)Oc2ccc(C(=N)N)cc2)cc1 [Compound 14]	
51.5				C=CCN(CC(=O)NCCN(C)C)C(=O)/C(C)=C/c1ccc(C(=O)Oc2ccc(C(=N)N)cc2)cc1 [Example 2(t)]	
67.8	4.5	0.17		CCOC(=O)CN(Cc1ccccc1)Cc1ccc(C(=O)Oc2ccc(C(=N)N)cc2)cc1 [Compound 6]	
79.7		0.19		C=CCN(CC(=O)OCC)C(=O)COc1ccc(C(=O)Oc2ccc(C(=N)N)cc2)cc1 [Compound 2]	
50.8				C/C(=C\c1ccc(C(=O)Oc2ccc(C(=N)N)cc2)cc1)C(=O)N(CC(=O)O)CC1CCNCC1 [Example 2(dd)]	
94.4				C/C(=C\c1ccc(C(=O)Oc2ccc(C(=N)N)cc2)cc1)C(=O)N(CCC(=O)O)C1CCCCC1 [Example 2(aa)]	
			90.8	C/C(=C\c1ccc(C(=O)Oc2ccc(C(=N)N)cc2)cc1)C(=O)N(CC(=O)O)Cc1ccccc1 [Compound 21]	
62.5		0.15		N=C(N)c1ccc(OC(=O)c2ccc(Cn3ccnc3-c3ccccc3)cc2)cc1 [Example 5(a)]	

Compound	inhibition (LTB4 receptor; [3]) [%]	IC50 [1] [µM]	IC50 [2, 4] [µM]	inhibition (LTB4 receptor; [5]) [%]	IC50 [2] [µM]
CCOP(=O)(CCCc1ccccc1)Cc1ccc(C(=O)Oc2ccc(C(=N)N)cc2)cc1 (stereo not shown) [Compound 4]	73.1	41	0.16		
CCOP(=O)(/C=C/c1ccc(C(=O)Oc2ccc(C(=N)N)cc2)cc1)OCC [Example 4(a)]	52				0.14
